Source: patent US20250152586A1, “PHARMACEUTICAL COMPOSITION FOR RELIEVING OR TREATING PAIN BY REGULATING CEREBELLAR GLIAL CELLS AND METHOD FOR RELIEVING OR TREATING PAIN” (Seoul National University R&DB Foundation, priority 2021, published 2025)
Counter-ions that a name gives are not always drawn. Each block holds one compound with its values, some of them ahead of it.

Tests used:
[1] = biological target: T1, hM4D (Gi) expressed in locus coeruleus cells (Homo sapiens, UniProt P08173, A203G/Y113C); assay: Capsaicin-induced pain licking time with chemogenetic inhibition of the axon terminals of locus coeruleus cells in the cerebellum (hM4D (Gi) activated by C21); format: in vivo, mice; conditions: 0.5 μl of 1 mM C21 into cerebellar cortex via cannula (vermis lobule IV/V), hM4D (Gi) in LC, about 10 minutes after, vs control; FIG. 3B
T1 construct: expressed in transfected cells; host or cells: mouse locus coeruleus cells, transduced in vivo by virus; agonist C21 applied at their axon terminals in the cerebellar cortex
T1 sequence (P08173 1-479 Y113C/A203G): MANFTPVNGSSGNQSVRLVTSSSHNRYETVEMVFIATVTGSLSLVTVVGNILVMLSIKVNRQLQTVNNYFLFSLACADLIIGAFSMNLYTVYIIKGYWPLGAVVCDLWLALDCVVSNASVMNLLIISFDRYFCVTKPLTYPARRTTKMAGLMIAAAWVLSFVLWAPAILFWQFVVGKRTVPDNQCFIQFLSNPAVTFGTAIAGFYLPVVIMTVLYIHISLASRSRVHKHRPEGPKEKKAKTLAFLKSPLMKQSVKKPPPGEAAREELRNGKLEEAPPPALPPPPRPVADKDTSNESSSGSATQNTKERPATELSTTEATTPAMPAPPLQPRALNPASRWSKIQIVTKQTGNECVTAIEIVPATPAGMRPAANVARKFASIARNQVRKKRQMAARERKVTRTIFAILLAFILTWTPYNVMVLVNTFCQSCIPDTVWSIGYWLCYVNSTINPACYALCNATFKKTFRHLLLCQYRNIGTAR
Method: (§1) 1-2. Drug Injection For chemogenetic inhibition of cerebellar glial cells, CNO was injected intraperitoneally at a dose of 5 to 10 mg/kg. For chemogenetic inhibition of locus coeruleus cells, 0.5 μl of 1 mM C21 was directly injected into the cerebellar cortex through a cannula installed in cerebellar vermis lobule IV/V. Prazosin (100 μM, 0.5 μl) and muscimol (100 μM, 0.5 μl), which are alpha-1 adrenergic receptor inhibitors or GABAA agonists, were injected through cannulas targeting the cerebellar cortex and cerebellar nuclei, respectively.
(§2) To confirm the pain pattern caused by capsaicin, the degree of pain was recorded for a total of 30 minutes, 10 minutes before the injection of capsaicin and 20 minutes after the injection of capsaicin (FIG. 1B).
Using non-genetically modified wild-type mice, a specific chemogenetic inhibitory virus which targets locus coeruleus cells was injected. […] Further, in this case, to confirm that the inhibition of the axon terminals of the locus coeruleus only affected the pain pattern, basic motor function was measured using the ledge test and gait test described above in Example 1-3. […]

[2] = Basic motor function, ledge test and gait test; format: in vivo, mice; conditions: vs control
Method: To confirm whether basic behavioral patterns were affected when the activity of cerebellar glial cells was regulated, basic movements were measured by placing the mice in a chamber measuring 40 cm in length and width (FIG. 1D).
A ledge test was first performed to measure motor coordination. […] A score closer to 3 was determined to be normal, and a score closer to 0 was determined to be abnormal motor coordination. (FIG. 1E, ledge test).
A gait test was secondly performed to measure motor coordination. An experimenter measured the mouse's walking pattern without being observed. […] A score closer to 3 was determined to be normal, and a score closer to 0 was determined to be abnormal motor coordination (FIG. 1E, gait test).

[3] = biological target: T2, hM4D (Gi) expressed in cerebellar glial cells (vermis lobule IV/V) (Homo sapiens, UniProt P08173, A203G/Y113C); assay: Capsaicin-induced pain licking time with chemogenetic inhibition of cerebellar glial cells (hM4D (Gi) activated by CNO); format: in vivo, mice; conditions: CNO intraperitoneal 5 to 10 mg/kg, about 1 hour after, vs control, FIG. 2B
T2 construct: expressed in transfected cells; host or cells: mouse cerebellar glial cells (vermis lobule IV/V), transduced in vivo by virus
T2 sequence (P08173 1-479 Y113C/A203G): T1 sequence (P08173 1-479 Y113C/A203G)
Method: Using non-genetically modified wild-type mice, a specific chemogenetic inhibitory virus which targets cerebellar glial cells was injected. […] Therefore, CNO, an agonist capable of activating the corresponding virus, was injected intraperitoneally at a dose of 5 to 10 mg/kg. Behavioral experiments were performed about 1 hour after glial cells were inhibited (FIG. 2A).

GABAA receptor = assay: Capsaicin-induced pain licking time after local injection of muscimol into the deep cerebellar nuclei; format: in vivo, mice; conditions: muscimol 100 μM, 0.5 μl, local into deep cerebellar nuclei (DCN) via cannula, 10 minutes after, vs control; FIG. 6B
Method: as §1, §2
Information processed in the cerebellar cortex converges to the cerebellar nuclei. To investigate the pain pattern induced by capsaicin when the cerebellar nuclei, the target of cerebellar output, were inhibited, the deep cerebellar nuclei (DCN) region was locally administered muscimol (100 μM, 0.5 μl), an inhibitory neurotransmitter GABAA receptor agonist, through a cannula. The licking time was measured 10 minutes after the injection when the effect of muscimol appeared (FIG. 6A).

[4] = test system: alpha-1 adrenergic receptors in cerebellar glial cells; assay: Capsaicin-induced pain licking time after local injection of prazosin into the cerebellum; format: in vivo, mice; conditions: prazosin 100 μM, 0.5 μl, local into cerebellum (vermis lobule IV/V) via cannula, about 10 minutes after, vs control; FIG. 4B
Method: as §1, §2
Alpha-1 adrenergic receptors in cerebellar glial cells are activated by norepinephrine. To inhibit this, prazosin (100 μM, 0.5 μl), an alpha-1 adrenergic receptor antagonist, was locally injected only into the cerebellum (vermis lobule IV/V) via a cannula. Thereafter, behavioral experiments were performed about 10 minutes after the alpha-1 adrenergic receptors were inhibited (FIG. 4A).

[5] = test system: cerebellar glial cell-specific alpha-1 adrenergic receptors; assay: Capsaicin-induced pain licking time after knockdown with cerebellar glial cell-specific shRNA; format: in vivo; conditions: Cre-dependent shRNA virus in Glast-Cre/ERT mice after tamoxifen, vs control; FIG. 5B
Method: Using non-genetically modified wild-type mice, a specific chemogenetic inhibitory virus which targets cerebellar glial cells and locus coeruleus cells was injected. To specifically remove alpha1-adrenergic receptors from cerebellar glial cells, using Glast-Cre (Tg(Slcla3-Cre/ERT) 1Nat/J), a genetically modified mouse in which Cre is expressed by tamoxifen specifically in only cerebellar glial cells, Cre was expressed by injecting tamoxifen, and then a virus that removes the alpha1-adrenergic receptor in a Cre-dependent manner was injected.
as §2
As another approach to prevent the activity of cerebellar glial cells, alpha-1 adrenergic receptors were inhibited using cerebellar glial cell-specific shRNA. To specifically remove alpha1-adrenergic receptors from cerebellar glial cells, using Glast-Cre (Tg(Slcla3-Cre/ERT) 1Nat/J), a genetically modified mouse in which Cre is expressed by tamoxifen specifically in only cerebellar glial cells, Cre was expressed by injecting tamoxifen, and then a virus that removes the alpha1-adrenergic receptor in a Cre-dependent manner was injected. Glast-cre (Tg(Slcla3-cre/ERT) 1 Nat/J) mice were purchased from Jackson Labs, USA. […]

Compound: Cl.Cl.c1ccc2c(c1)N=C(N1CCNCC1)c1ccccc1N2 [C21, DREADD agonist 21(Compound 21)]
licking time (pain induced by capsaicin) [1]: significantly reduced
basic motor performance (ledge test and gait test) ([2]; 0.5 μl of 1 mM C21 into cerebellar cortex, hM4D (Gi) in LC, FIG. 3C): no significance difference

licking time (pain induced by capsaicin) [3]: significantly reduced
Compound: C[N+]1([O-])CCN(C2=Nc3cc(Cl)ccc3Nc3ccccc32)CC1.Cl.Cl [CNO, Clozapine N-oxide (CNO) dihydrochloride]

Compound: NCc1cc(=O)[nH]o1 [muscimol, Muscimol]
basic motor performance (ledge test and gait test) ([2]; muscimol 100 μM, 0.5 μl, local into DCN, FIG. 6C): no significance difference
licking time (pain induced by capsaicin) (GABAA receptor): significantly reduced

basic motor performance (ledge test and gait test) ([2]; prazosin 100 μM, 0.5 μl, local into cerebellum, FIG. 4C): no significance difference
Compound: COc1cc2nc(N3CCN(C(=O)c4ccco4)CC3)nc(N)c2cc1OC [prazosin, Prazosin hydrochloride]
licking time (pain induced by capsaicin) [4]: significantly reduced

Compound: shRNA: Cre-dependent cerebellar glial cell-specific shRNA (534-558) against alpha-1 adrenergic receptor, GAGCCACACTTAGCTAACCATTTCA (guide GAGCCACACUUAGCUAACCAUUUCA)
licking time (pain induced by capsaicin) [5]: significantly reduced
